Experimental data from paper PMC7998748, “A Unique Acylated Flavonol Glycoside from Prunus persica (L.) var. Florida Prince: A New Solid Lipid Nanoparticle Cosmeceutical Formulation for Skincare” (Antioxidants, 2021).

Tests used:
[1] = β-carotene bleaching assay; settings: after 30 min
Text: (§1) The DPPH assay was peformed using the method of Yardpiroon et al., Vitamin C was used as a positive control. The ABTS assay followed the method of Re et al., [40], Vitamin C was used as a standard. The β-carotene bleaching assay used the method described by Soulef et al., [14] in the presence of the positive control BHT. The value for each test sample was presented as the inhibition curve at 50% or IC50.

[2] = molecular target: collagenase type 1 from Clostridium histolyticum (Hathewaya histolytica (Clostridium histolyticum), UniProt Q46085); assay: biochemical; settings: read-out: Anti-Collagenase % Inhibition
DPPH assay = assay: DPPH assay
Text: as §1

mushroom tyrosinase = mushroom tyrosinase (Agaricus bisporus, UniProt C7FF04); assay: Anti-tyrosinase assay; assay type: biochemical; settings: 300 μg/mL tested samples; positive control kojic acid (methods: 1.4 mg/mL)
Description: For the anti-tyrosinase assay, 5600 units/mL of mushroom tyrosinase was incubated with each of the tested extracts or 1.4 mg/mL kojic acid (standard inhibitor) for 15 min at 37 °C before adding 1 mM L-DOPA as a substrate. The absorbance of the formed dopachrome was measured at 475 nm. The tested samples were used in a concentration range of 75–500 µg/mL.

[3] = MTT cytotoxicity in human keratinocytes; assay type: cell-based; settings: human keratinocytes cell line, 1 mg/mL, read-out: cell viability (cells survived)
Description: (§2) The human keratinocytes cell line was obtained from VACSERA CO. (The Egyptian Company for the Production of Vaccines, Sera, and Drugs, Giza, Egypt). The MTT assay was done for PPEE and PPEE-SLNs according to the method of Mostafa et al..
(§3) The MTT assay was used to test whether PPEE, PPEE-SLNs, and KDPAG could affect cell viability using human keratinocytes. Different concentrations of PPEE, PPEE-SLNs, extract-free-SLNs and KDPAG at 0.0625– 1mg/mL were incubated over 24 h with a human keratinocytes cell line (Figure 2). […] However, after treatment with 1 mg/mL of PPEE, PPEE-SLNS, Extract-free-SLNs, and KDPAG over 24 h, a significant reduction in cell viability of human keratinocytes was observed, 93%, 90%, 95%, and 89% of the cells survived, respectively. Thus, concentrations of PPEE, PPEE-SLNs, and KDPAG equal to or lower than 0.5 mg/mL were used for subsequent studies.

[4] = test system: human keratinocytes cell line; assay: MTT cytotoxicity in human keratinocytes; assay type: cell-based; settings: 0.0625–0.5 mg/mL, 24 h
Description: as §2, §3

ABTS assay = assay: ABTS assay
Text: as §1

human leukocyte elastase = molecular target: T1, human leukocyte elastase (Homo sapiens, UniProt P08246); assay: Anti-elastase assay; assay type: biochemical
T1 sequence (P08246 30-267): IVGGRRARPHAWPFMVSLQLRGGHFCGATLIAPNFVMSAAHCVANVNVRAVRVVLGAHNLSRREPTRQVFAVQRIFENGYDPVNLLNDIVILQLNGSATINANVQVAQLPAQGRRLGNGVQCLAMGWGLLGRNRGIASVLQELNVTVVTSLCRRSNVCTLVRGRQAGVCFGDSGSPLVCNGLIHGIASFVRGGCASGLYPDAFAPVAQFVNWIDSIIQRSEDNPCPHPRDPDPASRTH
Description: The anti-aging and skin whitening activities were assessed following the methods reported by Mostafa et al.. For the anti-elastase assay, 1 μg/mL of human leukocyte elastase was incubated with HEPES buffer pH 7.5 and each of the tested extracts or 1.4 mg/mL N-Methoxysuccinyl-Ala-Ala-Pro-chloromethyl ketone (standard inhibitor) in a 96-well plate for 20 min at room temperature before the addition of 100 μL of 1 mM N-Methoxysuccinyl-Ala-Ala-Pro-Val-p-nitroanilide as a substrate. After 40 min incubation the absorbance was measured at 405 nm with a well devoid of extract/inhibitor serving as a blank. The tested samples were used in a concentration range of 25–300 µg/mL.

Sequence of mushroom tyrosinase (G1K3P4 entry or part of it): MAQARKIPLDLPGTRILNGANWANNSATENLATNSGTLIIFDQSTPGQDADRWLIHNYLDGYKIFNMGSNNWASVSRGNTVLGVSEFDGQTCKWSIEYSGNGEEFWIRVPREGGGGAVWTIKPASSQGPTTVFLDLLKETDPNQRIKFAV
Sequence of mushroom tyrosinase (C7FF04 1-392): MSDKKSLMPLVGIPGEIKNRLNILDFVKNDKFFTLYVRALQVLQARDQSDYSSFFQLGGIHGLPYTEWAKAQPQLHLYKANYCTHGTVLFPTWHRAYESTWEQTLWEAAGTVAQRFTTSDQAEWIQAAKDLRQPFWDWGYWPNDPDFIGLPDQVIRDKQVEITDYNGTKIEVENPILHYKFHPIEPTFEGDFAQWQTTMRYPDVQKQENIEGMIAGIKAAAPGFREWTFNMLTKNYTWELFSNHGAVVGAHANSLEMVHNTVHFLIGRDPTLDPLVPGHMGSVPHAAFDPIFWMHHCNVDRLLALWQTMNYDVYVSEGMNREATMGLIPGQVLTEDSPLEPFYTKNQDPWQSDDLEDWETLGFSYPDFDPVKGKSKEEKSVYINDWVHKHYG
Sequence of collagenase type 1 from Clostridium histolyticum (Q46085 41-1021 limits assumed): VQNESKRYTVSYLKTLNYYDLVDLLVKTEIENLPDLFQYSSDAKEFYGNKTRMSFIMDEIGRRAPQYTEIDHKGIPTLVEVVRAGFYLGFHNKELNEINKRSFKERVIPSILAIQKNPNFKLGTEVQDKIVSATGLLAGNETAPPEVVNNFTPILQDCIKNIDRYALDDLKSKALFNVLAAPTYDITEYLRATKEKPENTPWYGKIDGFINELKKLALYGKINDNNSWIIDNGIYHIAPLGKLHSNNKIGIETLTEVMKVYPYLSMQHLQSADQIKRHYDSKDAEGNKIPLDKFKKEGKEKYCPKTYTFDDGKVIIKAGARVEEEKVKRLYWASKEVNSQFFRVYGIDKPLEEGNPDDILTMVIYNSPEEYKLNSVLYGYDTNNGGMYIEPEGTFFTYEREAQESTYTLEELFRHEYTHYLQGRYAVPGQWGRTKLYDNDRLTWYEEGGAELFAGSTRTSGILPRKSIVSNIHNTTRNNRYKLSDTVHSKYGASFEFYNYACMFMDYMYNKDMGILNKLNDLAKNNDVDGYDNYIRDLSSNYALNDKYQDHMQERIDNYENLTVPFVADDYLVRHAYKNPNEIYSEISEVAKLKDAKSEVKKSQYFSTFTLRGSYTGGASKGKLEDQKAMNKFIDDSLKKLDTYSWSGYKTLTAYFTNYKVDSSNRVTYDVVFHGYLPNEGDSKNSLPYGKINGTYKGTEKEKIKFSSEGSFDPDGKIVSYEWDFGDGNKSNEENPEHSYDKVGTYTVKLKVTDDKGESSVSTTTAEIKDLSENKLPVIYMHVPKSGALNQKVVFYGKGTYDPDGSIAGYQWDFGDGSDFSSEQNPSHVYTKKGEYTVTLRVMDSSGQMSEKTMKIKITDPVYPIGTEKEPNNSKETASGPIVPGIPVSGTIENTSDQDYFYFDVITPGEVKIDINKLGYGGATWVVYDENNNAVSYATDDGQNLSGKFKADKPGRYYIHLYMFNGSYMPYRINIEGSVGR

SMILES | β-carotene assay IC50 [1] [mg/L] | inhibition at 1400 µg/mL [2] [%] | DPPH IC50 (DPPH assay) [mg/L] | inhibition at 300 µg/mL (mushroom tyrosinase) [%] | viability at 24 h, 1 mg/mL [3] [%] | reduction in cell viability [4] | ABTS IC50 (ABTS assay) [mg/L] | inhibition at 1400 µg/mL (human leukocyte elastase; 300 μg/mL tested samples, positive control N-(Methoxysuccinyl)-Ala-Ala-Pro-Val-chloromethyl ketone (methods: 1.4 mg/mL)) [%] | IC50 (human leukocyte elastase; positive control N-(Methoxysuccinyl)-Ala-Ala-Pro-Val-chloromethyl ketone) [µM]
Cc1cc(C(C)(C)C)c(O)c(C(C)(C)C)c1 [BHT, reference compound] | 8.06 ± 0.67 |  |  |  |  |  |  |  | 
O=C(Cc1ccc(O)c(O)c1)OC[C@H]1O[C@@H](Oc2c(-c3ccc(O)cc3)oc3cc(O)cc(O)c3c2=O)[C@H](O)[C@@H](O)[C@@H]1O [KDPAG, kaempferol 3-O-β-^4C1-(6″-O-3,4-dihydroxyphenylacetyl glucopyranoside)] | 1.73 ± 0.05 | 91.1 ± 2.45 | 6.35 ± 3.40 | 85.7 ± 2.1 | 89 | no observed significant reduction | 3.91 ± 1.43 | 89.2 ± 1.26 | 83.2
O=C1O[C@H]([C@@H](O)CO)C(O)=C1O [vitamin C, reference compound] |  |  | 2 ± 0.01 |  |  |  | 0.96 ± 0.02 |  | 
